The nature of data set [1]: Behaviour of the isolated solid after air drying at ambient condition (hygroscopicity). It is filed as physicochemical. The settings on record: solid from slurry of free base, sulfuric acid and THF; air dried at ambient condition. Here is the method: Using the amorphous free base from Example 1, 64 salt screen experiments were conducted using 16 acids in four solvent systems, plus four blank experiments in each respective solvent system. Slurry methods as disclosed herein were used to provide salt polymorphs of Compound 1. […] After magnetically stirring for four days at room temperature, any precipitation was isolated by centrifugation. If there was no precipitation after four days at room temperature, the clear solutions were transferred to stir at 5° C. to induce crystallization for 24 hours. If still no solids were observed, the final clear solution was subjected to slow evaporation at room temperature for four days. Any isolated solid was air dried at ambient condition before analysis.
[…]. As such, DSC/TGA data were not collected.

For data set [2] the following is noted: acids (counterions) used in the salt screen of Compound 1; cited from earlier work.

Take `Cn1ncc(-c2ccc3c(=O)[nH]nc(CN)c3c2)c1-c1c(F)c(Cl)cc(OC2CC2)c1C#N.O=S(=O)(O)O` [sulfate salt Form A, 2-(4-(4-(aminomethyl)-1-oxo-1,2-dihydrophthalazin-6-yl)-1-methyl-1H-pyrazol-5-yl)-4-chloro-6-cyclopropoxy-3-fluorobenzonitrile sulfate]: the “state of the solid after air drying (hygroscopicity)” value in data set [1] is given as “remained a wet paste, likely due to hygroscopicity”.
As to `O=C(O)CC(O)C(=O)O` (centres unmarked) [Malic acid], the pKa (commonly the negative logarithm of the acid dissociation constant) in data set [2] is recorded as 3.16.
